Measurements as given in patent publication US20050288371A1, “Treatment of neuropathic pain, fibromyalgia or rheumatoid arthritis” (H. Lundbeck A/S, priority 2004, published 2005).

Key:
formalin pain model = type: in vivo; details: s.c. test drug 30 min or 2 h before the test
Description: The formalin pain model is a well-established animal model of persistent somatic pain (Dubuisson, D. and Dennis, S. G. Pain 4, 1977, 161-174). It has been described as a model of clinical inflammatory pain (Tjølsen, A. and Hole, K, In: Dickenson, A. H. and Besson, J.-M. R., Editors, 1997, The Pharmacology of Pain, Springer-Verlag, Berlin, 1-20). Formalin injected subcutaneously in a hind paw produces initially a local stimulation of the nociceptors; this is referred to as phase 1. This is followed by inflammatory processes and nerve sensitization (phase 2). The latter phase models the neuropathic pain condition. A number of drugs are active in the model, e.g. morphine and in particular antiepileptic drugs (e.g. gabapentin, lamotrigine, carbamazepine) that have shown beneficial effects in clinical neuropathic states. However, these treatments are accompanied by troublesome side effects. The non-steroid antiinflammatory drugs (NSAIDs) that are used for treatment of inflammatory processes in tissue and have relatively weak effects on neuropathic pain conditions have weak activity in the formalin model.
Fifty microliters of 2.5% formalin were administered subcutaneously (s.c.) into the plantar region of the right hind-paw. […] The total time the animal spent licking, biting or shaking the injected paw was recorded. […]

[1] = background statement on known drugs; cited from earlier work

Row | Compound | inhibition of the pain response in phase 1 (formalin pain model; phase 1 (0-5 min after formalin injection)) | inhibition of the pain response in phase 2 (formalin pain model; phase 2 (20-30 min after formalin injection)) | activity in the formalin model [1]
1 | Oc1noc2c1CCNC2 [gaboxadol] | potent and dose dependent inhibition of the pain response in phase 1 | potently inhibited the pain response in phase 2, in a dose dependent manner | –
2 | CN1CC[C@]23c4c5ccc(O)c4O[C@H]2[C@@H](O)C=C[C@H]3[C@H]1C5 [morphine] | – | – | active
3 | NC(=O)N1c2ccccc2C=Cc2ccccc21 [carbamazepine] | – | – | active
4 | Nc1nnc(-c2cccc(Cl)c2Cl)c(N)n1 [lamotrigine] | – | – | active
5 | NCC1(CC(=O)O)CCCCC1 [gabapentin] | – | – | active
